In patent publication US20250281452A1, “CHIRAL ARYL PROPIONIC ACID DERIVATIVE AND PHARMACEUTICAL COMPOSITION THEREOF, AND USE” (SHIJIAZHUANG DISCOVERY MEDICINE TECHNOLOGY CO., LTD, priority 2022, published 2025):

What was measured:
IL-6 in HFLS-RA cells = experiment: Effect on HFLS-RA cytokine secretion, IL-6 (ELISA); type: cell-based, human; set-up: unit not given here; details: supernatant content, TNF-α 10 ng/mL, test sample 100 µg/mL, 48 h culture, x ± s
Method: (§1) The experiment was divided into a blank control group (containing no test samples or TNF-α), a TNF-α group (the final concentration of TNF-α for cell incubation was 10 ng/mL), test sample groups (8 groups in total, including DSC4801 group, DSC4807 group, DSC4810 group, DSC4813 group, DSC4821 group and DSC4826 group as well as control 1 group, control 3 group, the final concentrations of test samples for cell incubation and of TNT-α were 100 µg/mL and 10 ng/mL, respectively).
(§2) HFLS-RA cells in a logarithmic growth phase were inoculated in a 6-well culture plate at a density of 5×10^4 cell/ml with an inoculation volume of each well being 200 μL, and cultured for 2 h in a 37° C. and 5% CO2 incubator after inoculation, and then a proper amount of sample solutions was added according to the grouping and the final concentrations of samples, with 3 duplicated wells set in each group. Cell supernatant was collected after further culture of 48 h, and the contents of IL-6 and IL-8 in the supernatant were detected using an ELISA kit.

HFLS-RA cells = experiment: Effect on HFLS-RA cell proliferation activity (CCK-8); type: cell-based, human; details: TNF-α 10 ng/mL induced HFLS-RA cells, 72 h after treatment, x ± s
Method: Co-incubation: HFLS-RA cells in a logarithmic growth phase were inoculated in a 96-well culture plate at a density of 3×10^4 cells/ml with an inoculation volume of each well being 100 μL, and cultured for 24 h in a 37° C. and 5% CO2 incubator (the cell adhesion convergence degree reached about 25%) after inoculation, and then a proper amount of sample solutions was added according to the grouping and final concentrations of samples, with 3 duplicated wells set in each group. Before sampling (0 h), group 1 in blank control group was subjected to CCK-8 detection, and the rest groups were cultured for 72 h in an incubator and then subjected to CCK-8 detection.
Detection and calculation: the culture solution was discarded, and 100 μL of culture medium containing a 10% CCK-8 solution was added into each well and incubated for 2 h at 37° C. The light absorption value (OD value) was measured at 450 nm using a microplate reader, and the cell proliferation rate was calculated according to the following formula.
cell proliferation rate=[OD(72 h)−OD(0 h)]/OD(0 h)×100%, Calculation formula
where, OD(0 h) represents the OD value at 0 h, and […].

IL-8 in HFLS-RA cells = experiment: Effect on HFLS-RA cytokine secretion, IL-8 (ELISA); type: cell-based, human; set-up: unit not given here; details: supernatant content, TNF-α 10 ng/mL, test sample 100 µg/mL, 48 h culture, x ± s
Method: as §1, §2

[1] = cited from earlier work
[2] = single local administration of 1% loxoprofen (100 mg), in 12 hours; cited from earlier work
[3] = after oral administration; cited from earlier work
[4] = Joint tissue distribution after oral gavage; type: in vivo; details: SD rats, ankle joint tissue at 0.5, 1, 2 h, trans-OH metabolite detected by LC-MS/MS, compared with control 1 and control 2, P<0.001 (FIG. 1)
Method: 36 healthy male SD rats with a body weight of 200±20 g per rat were fed under conditions of a room temperature of 20-26° C., a humidity of 40%-70% and a light and dark cycle of 12 h/12 h, the rats were fed at liberty in the process of feeding. After adaptive feeding for 3 days, the SD rats were randomly divided into 4 groups (A/B/C/D groups), with 9 rats per group, each group was further randomly divided into 3 time groups, with 3 rats per time group. A suspension (the test samples were suspended with 1% MS, respectively) of the test sample was given to each group via oral gavage, wherein group A was administrated with 3 mg/kg of DSC4813, group B was administrated with 2.94 mg/kg of DSC4821, group C was administrated with 2.47 mg/kg of control 1, and group D was administrated with 2 mg/kg of control 2 (loxoprofen). 3 rats were anesthetized and euthanized in each group at 0.5 h, 1 h and 2 h, respectively after administration. The left and right ankle joints of hind legs were dissected, and the skin at the joints was peeled off. […] To-be-detected substances were detected by LC-MS/MS (compound trans-OH metabolite was detected for groups A/B/C, loxoprofen and all isomers whose carbonyl was reduced to OH for group D, and the results of group D were a sum of concentrations of loxoprofen and all isomers whose carbonyl was reduced to OH).

Row | Structure (SMILES) | Cell proliferation rate (HFLS-RA cells) | further results
1 | C[C@H](C(=O)O)c1ccc(C[C@H]2CCC[C@@H]2OC(=O)C(CS)N(C)C)cc1 (stereo partly drawn) [DSC4810] | 24.95 ± 2.65% | IL-6 (IL-6 in HFLS-RA cells): 47.88 ± 0.72; IL-8 (IL-8 in HFLS-RA cells): 118.57 ± 3.92
2 | CCOC(=O)[C@@H](C)c1ccc(C[C@H]2CCC[C@@H]2OC(=O)COCCN(CC)CC)cc1 [DSC4811] | 22.37 ± 1.78% | –
3 | CC[N+](CC)(CC)CCOC(=O)[C@@H](C)c1ccc(C[C@H]2CCC[C@@H]2O)cc1 [DSC4815] | 28.31 ± 2.26% | –
4 | CCN(CC)CCOC(=O)[C@@H](C)c1ccc(C[C@H]2CCC[C@@H]2OC(=O)C(CS)N(C)C)cc1 (stereo partly drawn) [DSC4806] | 24.19 ± 2.24% | –
5 | CCN(CC)CCOCCOC(=O)[C@@H](C)c1ccc(C[C@H]2CCC[C@@H]2OC(C)=O)cc1 [DSC4805] | 29.28 ± 1.92% | –
6 | CC[N+](CC)(CC)CCOC(=O)[C@@H](C)c1ccc(C[C@H]2CCC[C@@H]2O)cc1 [DSC4816] | 29.71 ± 2.83% | –
7 | CC(C(=O)O)c1ccc(CC2CCCC2=O)cc1 (stereo not drawn) [Control 2, loxoprofen, reference compound] | 48.25 ± 3.21% | –
8 | CCCC(=O)O[C@H]1CCC[C@@H]1Cc1ccc([C@H](C)C(=O)O)cc1 [Control 1, reference compound] | 39.33 ± 3.46% | IL-6 (IL-6 in HFLS-RA cells): 67.45 ± 2.68; IL-8 (IL-8 in HFLS-RA cells): 131.21 ± 6.88
9 | CC(C(=O)O)c1ccc(CC2CCCC2=O)cc1 (stereo not drawn) [Control 2, loxoprofen] | – | Plasma protein binding rate [1]: 97%; Dose transferred to a body [2]: 10%; Time until plasma concentration reaches peak [3]: 30 to 50 min
10 | CCN(CC)CCN(CC)CCOC(=O)[C@@H](C)c1ccc(C[C@H]2CCC[C@@H]2O)cc1 [DSC4803] | 30.17 ± 1.85% | –
11 | CCOC(=O)[C@@H](C)c1ccc(C[C@H]2CCC[C@@H]2OC(=O)COCC[N+](CC)(CC)CC)cc1 [DSC4817] | 23.32 ± 2.46% | –
12 | CCN(CC)CCOC(=O)[C@@H](C)c1ccc(C[C@H]2CCC[C@@H]2OC(C)=O)cc1 [DSC4804] | 29.36 ± 2.33% | –
13 | C[C@H](C(=O)OCCN1C(=O)CCC1=O)c1ccc(C[C@H]2CCC[C@@H]2O)cc1 [DSC4813] | 22.34 ± 2.72% | IL-6 (IL-6 in HFLS-RA cells): 46.82 ± 0.63; IL-8 (IL-8 in HFLS-RA cells): 119.48 ± 4.07; Distribution at joints [4]: significantly improved
14 | CCOC(=O)[C@@H](C)c1ccc(C[C@H]2CCC[C@@H]2OC(=O)OCCN(CC)CC)cc1 [DSC4825] | 22.53 ± 2.66% | –
15 | CCOC(=O)[C@@H](C)c1ccc(C[C@H]2CCC[C@@H]2OC(=O)COCC[N+](CC)(CC)CC)cc1 [DSC4818] | 22.54 ± 2.14% | –
16 | CCN(CC)CCOC(=O)[C@@H](C)c1ccc(C[C@H]2CCC[C@@H]2O)cc1 [DSC4801] | 31.18 ± 1.82% | IL-6 (IL-6 in HFLS-RA cells): 46.26 ± 0.35; IL-8 (IL-8 in HFLS-RA cells): 119.08 ± 4.55
17 | CCN(CC)CC(=O)O[C@H]1CCC[C@@H]1Cc1ccc([C@H](C)C(=O)O)cc1 [DSC4821] | 20.96 ± 1.85% | IL-6 (IL-6 in HFLS-RA cells): 46.58 ± 0.61; IL-8 (IL-8 in HFLS-RA cells): 117.72 ± 3.43; Distribution at joints [4]: significantly improved
18 | CN(Cc1cnc2nc(N)nc(N)c2n1)c1ccc(C(=O)N[C@@H](CCC(=O)O)C(=O)O)cc1 [Negative control group, methotrexate, reference compound] | – | Cell proliferation rate (HFLS-RA cells; methotrexate 1 g/mL): 18.37 ± 1.32%
19 | CCN(CC)CCOC(=O)O[C@H]1CCC[C@@H]1Cc1ccc([C@H](C)C(=O)O)cc1 [DSC4826] | 21.43 ± 1.94% | IL-6 (IL-6 in HFLS-RA cells): 47.59 ± 0.45; IL-8 (IL-8 in HFLS-RA cells): 117.77 ± 4.23
20 | CCN(CC)CCOCC(=O)O[C@H]1CCC[C@@H]1Cc1ccc([C@H](C)C(=O)O)cc1 [DSC4807] | 22.23 ± 3.04% | IL-6 (IL-6 in HFLS-RA cells): 48.01 ± 0.77; IL-8 (IL-8 in HFLS-RA cells): 121.66 ± 4.78
21 | C[C@H](C(=O)O)c1ccc(C[C@H]2CCC[C@@H]2OC(=O)C(N)CS)cc1 (stereo partly drawn) [DSC4809] | 22.47 ± 1.99% | –
22 | CCOC(=O)[C@@H](C)c1ccc(C[C@H]2CCC[C@@H]2OC(=O)CCN(CC)CC)cc1 [DSC4820] | 21.11 ± 3.56% | –
23 | CCOC(=O)[C@@H](C)c1ccc(C[C@H]2CCC[C@@H]2OC(=O)C(CS)N(C)C)cc1 (stereo partly drawn) [DSC4812] | 23.81 ± 2.21% | –
24 | CCN(CC)CCNCCOCC(=O)O[C@H]1CCC[C@@H]1Cc1ccc([C@H](C)C(=O)O)cc1 [DSC4808] | 23.11 ± 2.25% | –
25 | CC(=O)O[C@H]1CCC[C@@H]1Cc1ccc([C@H](C)C(=O)OCCN2C(=O)CCC2=O)cc1 [DSC4814] | 24.36 ± 1.99% | –
26 | CCOC(=O)[C@@H](C)c1ccc(C[C@H]2CCC[C@@H]2OC(=O)CN(CC)CC)cc1 [DSC4819] | 20.36 ± 2.10% | –
27 | CCN(CC)CCOCCOC(=O)[C@@H](C)c1ccc(C[C@H]2CCC[C@@H]2O)cc1 [DSC4802] | 27.26 ± 2.41% | –
